Among the data in ChEMBL document CHEMBL1135700, “Design, synthesis and activity of ascorbic acid prodrugs of nipecotic, kynurenic and diclophenamic acids, liable to increase neurotropic activity” (2002) are Latency values, retold here.

The test system of this assay is Mus musculus. Description: Compound administered at a concentration of 0.75 mmol/kg intraperitoneally was evaluated for its effect on pentylenetetrazole induced convulsions in mice, measured as latency to convulsion.

`C1CCc2nnnn2CC1.O=C1O[C@H]([C@@H](O)COC(=O)C2CCCNC2)C(O)=C1O` (stereo partly specified) returned a Latency of 922 s.
